Common to all, as to assay: inhibition of tumour cell growth, NCI panel, 48 h
Assay [1] relates to IGROV-1.
In assay [2] the test system is BT-549.
Assay [3] has as its system MDA-MB-435.
For assay [4], the system named is HCT-116.
Assay [5] has as its system HCT-15.
The subject of assay [6] is U-251.
Assay [7] relates to TK-10.
The test system of assay [8] is HT-29.
In assay [9] the test system is EKVX.
The subject of assay [10] is UO-31.
Assay [11] deals with LOX IMVI.
Assay [12] has as its system SNB-19.
Assay [13] concerns SK-MEL-28.
In assay [14] the test system is UACC-62.
In assay [15] the test system is MOLT-4.
The subject of assay [16] is HOP-92.
Assay [17] concerns KM12.
Assay [18] deals with M14.
Assay [19] deals with NCI/ADR-RES.
In assay [20] the test system is SW-620.

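Following 48 hours of exposure in 96-well plates, responses at five concentrations were used to interpolate endpoints linearly. GI50 marks 50% less growth.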 Active and inactive are the calls of the source. Cut-off read from the data, not from the text of the source: active = GI50 up to about 1.1 µM and inactive = higher. Some results are limits rather than exact numbers.

As for `CCOC(=O)c1cc(-c2ccc(OC)c(OC)c2)cn1C`, the GI50 is > 10 µM (inactive) in assay [1]; > 10 µM (inactive) in [2]; > 10 µM (inactive) in [3]; > 10 µM (inactive) in assay [4]; above 10 µM in assay [5]; > 10 µM (inactive) in assay [6]. The GI50 in assay [7], in [8], in assay [9], in assay [10], in assay [11] and in assay [12] was > 10 µM (inactive) in each case. In addition, the GI50 in assay [13], in assay [14], in [15], in [16], in assay [17] and in assay [18] was > 10 µM (inactive) throughout. Besides, in assay [19], the GI50 was > 10 µM (inactive).
Consider `CC(C)(C)OC(=O)N1CCC(NC(=O)NC2CCN(C(=O)OC(C)(C)C)CC2)CC1`, for which the GI50 in assay [1] was > 100 µM (inactive); in [2], 0.118 µM (active); in [3], > 100 µM (inactive); in [4], > 100 µM (inactive); in assay [5], above 100 µM; in [6] it was > 100 µM (inactive). Further, the GI50 in assay [7], in assay [8], in assay [9], in assay [10], in assay [11] and in [12] was > 100 µM (inactive) throughout. The GI50 in assay [13], in assay [20], in [14], in assay [16], in assay [17] and in assay [18] was > 100 µM (inactive) throughout. For the same compound, the GI50 in [19] was > 100 µM (inactive).
Turning to `c1ccc(C2=C(c3ccccc3)Sc3nnc(CCCCCCCCc4nnc5n4NC(c4ccccc4)=C(c4ccccc4)S5)n3N2)cc1`, the GI50 is 46.6 µM (inactive) in assay [2]; 34.9 µM (inactive) in [3]; 25.8 µM (inactive) in assay [4]; 37.5 µM in assay [5]; 45.2 µM (inactive) in [6]; 44.2 µM (inactive) in assay [7]. Also, the GI50 is 31.8 µM (inactive) in [8]; 35.5 µM (inactive) in assay [9]; 27.4 µM (inactive) in [10]; 48.2 µM (inactive) in [11]; 54.6 µM (inactive) in [12]; > 100 µM (inactive) in assay [13]. Besides, the GI50 in [20] is > 100 µM (inactive); in [14], 46.6 µM (inactive); in assay [15] it was 17.9 µM (inactive); in [16], 54.8 µM (inactive); in [17], 44.1 µM (inactive); in [18] it was 29.8 µM (inactive). In addition, the GI50 in [19] was 45.8 µM (inactive).
With `C=C1C[C@@H]2CC[C@@]34CC5O[C@H]6C(O[C@H]7CC[C@H](CC(=O)O[C@@H]8[C@@H](C)[C@@H]9O[C@@H]%10C[C@]%11(C[C@@H]%12O[C@]%13(C[C@H](C)[C@@H]%14O[C@@H]%15CC(C(COC(C)=O)OC(C)=O)O[C@@H]%15C[C@@H]%14O%13)C[C@H](C)[C@@H]%12O%11)O[C@@H]%10C[C@@H]9O[C@H]8CC8O[C@@H](CC[C@@H]1O2)C[C@@H](C)C8(O)CO)O[C@@H]7[C@@H]6O3)[C@H]5O4` (some centres not stated), the GI50 in [1] was 0.371 µM (active); in [2], 0.0908 µM (active); in assay [3], 0.0826 µM (active); in assay [4], 0.292 µM (active); in [5], 0.527 µM; in assay [6] it was 0.436 µM (active). Further, the GI50 in assay [7] is > 0.36 µM (active); in assay [9], > 0.923 µM (active); in assay [10] it was > 0.805 µM (active); in [11] it was 0.432 µM (active); in assay [12] it was 0.701 µM (active); in assay [13], > 1 µM (active). Moreover, the GI50 is 0.6 µM (active) in assay [20]; 0.242 µM (active) in [14]; > 0.548 µM (active) in assay [15]; > 1 µM (active) in assay [16]; 0.327 µM (active) in assay [17]; 0.587 µM (active) in assay [18]. Further, the GI50 in assay [19] was > 1 µM (active).
Regarding `O=C1OCc2c1cc1cc3c(cc1c2-c1ccc2c(c1)OCO2)OCO3.O=C1OCc2cc3cc4c(cc3c(-c3ccc5c(c3)OCO5)c21)OCO4`, the GI50 in assay [1] is 8.55 µM (inactive); in assay [2], 19 µM (inactive); in [3], 1.87 µM (inactive); in assay [4], 2.76 µM (inactive); in assay [5] it was 6.18 µM; in [6], 13.2 µM (inactive). Besides, the GI50 in [7] is 14.4 µM (inactive); in assay [8], 7.23 µM (inactive); in assay [10], 14 µM (inactive); in assay [11] it was 14.2 µM (inactive); in [12] it was 30 µM (inactive); in assay [13], 45.4 µM (inactive). Besides, the GI50 in [20] was 4.51 µM (inactive); in assay [14] it was 8.55 µM (inactive); in assay [15], 2.31 µM (inactive); in assay [16], 13.8 µM (inactive); in assay [17], 11.1 µM (inactive); in assay [18], 4.47 µM (inactive). Further, in [19], the GI50 is 4.68 µM (inactive).
On to `O=C1NC(=S)NC(=O)C1=Cc1ccc(-c2ccccc2)cc1`, for which the GI50 in [1] is > 100 µM (inactive); in assay [2], > 100 µM (inactive); in [3], > 100 µM (inactive); in assay [4] it was 51.3 µM (inactive); in assay [5] it was above 100 µM; in assay [6], 54.1 µM (inactive). The GI50 in assay [7] is > 100 µM (inactive); in assay [8], > 100 µM (inactive); in assay [9], > 100 µM (inactive); in assay [10], > 100 µM (inactive); in assay [11], 69.3 µM (inactive); in assay [12], > 100 µM (inactive). The GI50 in assay [20] was > 100 µM (inactive); in [14], > 100 µM (inactive); in assay [15], 24.7 µM (inactive); in [16] it was > 100 µM (inactive); in [17], > 100 µM (inactive); in assay [18], > 100 µM (inactive). The GI50 in assay [19] is 27.9 µM (inactive).
With `COC1(OC)C2(Cl)C(Cl)=C(Cl)C1(Cl)C1COCC12` (configuration not stated), the GI50 is > 100 µM (inactive) in [1]; > 100 µM (inactive) in [2]; 30.8 µM (inactive) in assay [3]; above 100 µM in [5]; > 44.5 µM (inactive) in [6]; > 40.7 µM (inactive) in [7]. Further, the GI50 was > 100 µM (inactive) in assay [8]; > 100 µM (inactive) in assay [10]; > 100 µM (inactive) in assay [11]; > 100 µM (inactive) in [12]; > 38.7 µM (inactive) in assay [13]; > 100 µM (inactive) in [20]. The GI50 in [14] is > 100 µM (inactive); in assay [15], > 100 µM (inactive); in assay [16], > 81.3 µM (inactive); in assay [17] it was > 100 µM (inactive); in [18], > 100 µM (inactive); in assay [19] it was > 100 µM (inactive).

The record behind these values is ChEMBL document CHEMBL1201862, “PubChem BioAssay data set” (2004).
